The values that follow come from patent US11452291B2, “Induction of a physiological dispersion response in bacterial cells in a biofilm” (The Research Foundation for The State University of New York, priority 2007, dated 2022).

In one experiment the test system is P. aeruginosa biofilms. Briefly: Microtiter plate dispersion bioassay. The class given is cell-based, Pseudomonas aeruginosa PAO1. On the procedure: Microtiter plate dispersion bioassays were used to test various preparations for their ability to exogenously induce biofilm dispersion. Biofilms were grown on the inside surface of microtiter plate wells using a semi-batch culture method in which the medium within each well was replaced periodically to reduce the accumulation of native dispersion inducing factors. Biofilms grown in this manner were treated with dispersion inducer or sterile medium to release cells into the bulk liquid and evaluate dispersed cell number by measuring optical density. Briefly, sterile polystyrene 96 well plates were etched with acetone for 10 seconds to create a rough surface for the attachment of microbial cells. After drying for 24 hours, plates were inoculated with 150 μL/well of overnight culture containing the test organism, previously diluted 1:20 in growth medium and incubated at 30° C. with shaking at 200 rpm. Medium in the wells was replaced every 24 hours for 5 days and every 12 hours on day 6 and day 7. Medium was then replaced after 7 hours. Dispersion induction was tested by adding 150 μL growth medium containing dispersion inducer for 1 hr at 30° C. or sterile medium as a control. Medium containing dispersed cells was then transferred by pipet to a non-etched microtiter plate and the optical density (OD570) was determined (ELx808 Absorbance Microplate Reader; BioTek Instruments, Inc., Winooski, Vt.). […] Note: Microtiter plate dispersion bioassays were not suitable for determining absolute magnitude of an induced dispersion response because in a semi-batch system, control and test samples are susceptible to natural dispersion against which the activity of exogenous induction is measured. All efficiency studies were performed using biofilm tube reactor or flow-cell continuous culture systems and were based on both total cell counts and viable cell counts.

The subject of experiment [1] is biofilm cells of Staphylococcus aureus. As to conditions: cited from earlier work.
In experiment [2] the test system is P. aeruginosa biofilm microcolonies. The experiment is described as follows: Microscopic analysis of mature biofilm in flow cell. The class given is cell-based, Pseudomonas aeruginosa. How it is done:
A continuous-culture once-through flow cell was configured to observe the growth and development of biofilms attached to a glass substratum. The flow cell was constructed of aluminum containing a chamber 1.0 mm by 1.4 cm by 4.0 cm capped with a glass cover slip. Sterile modified EPRI medium was pumped from a 10-liter vessel through silicone tubing to the flow cell using a Masterflex 8-roller-head peristaltic pump at a flow rate of 0.13 mL/min. Flow through the chamber was laminar, with a Reynolds number of 0.17, having a fluid residence time of 4.3 min. Medium leaving the flow cell was discharged to an effluent reservoir via silicone tubing. The entire system was closed to the outside environment but maintained in equilibrium with atmospheric pressure by a 0.2-μm-pore-size gas-permeable filter fitted to each vessel. […] Each cell cluster was measured to determine its height by focusing from the substratum through to the apex of the cluster, and its width by measurement at the base of the cell cluster using a stage micrometer. Cell clusters were defined as cells embedded within an exopolysaccharide matrix attached to the substratum and lacking motility; void areas within cell clusters were determined by the observation of free-swimming bacteria within a space inside a cell cluster. […]

For `CC(C)CCCCCCC/C=C\C(=O)O` [DSF, reference compound], the “promotion of dispersion of P. aeruginosa” value in the experiment with P. aeruginosa biofilms is “shown not to promote dispersion”.

As to `OCl` [chlorine, sodium hypochlorite], in experiment [1], the “increase in concentration required to kill biofilm cells compared to planktonic cells” value was 600 fold.

As for `CCCCCCC/C=C\C(=O)O` [cis-2-decenoic acid], the “dispersion activity compared to un-concentrated spent culture medium” value in the experiment on P. aeruginosa biofilms (1.0 nanomolar) is recorded as “greater dispersion activity at 1.0 nanomolar than un-concentrated spent culture medium”. Further, the “time at which microcolony disaggregation begins” value in experiment [2] (10 μM added to mature biofilm in flow cell) turned out to be 11 min. The “effect on biofilm microcolony by microscopy” value in experiment [2] (FIG. 13) is reported as “completely disrupting a biofilm microcolony”.

As to `CCCCCCC/C=C/C(=O)O` [trans-2-decenoic acid], the “concentration range with dispersion activity” value in the experiment with P. aeruginosa biofilms (biofilm cultures grown in microtiter plates) is on record as “activity only at millimolar concentrations”.
